Columns and labels:
[1] = system: total serum bilirubin (TSB); settings: 3.0 and 4.5 mg/kg stannsoporfin patients receiving phototherapy; previous study (placebo 41%); cited from earlier work
[2] = system: total serum bilirubin (TSB); test: Phase 2b randomized, placebo-controlled trial of single IM stannsoporfin with phototherapy: efficacy on TSB; type: in vivo, human infants; settings: for Rebound Hyperbilirubinemia N: TSB at or above PT threshold after discontinuation of initial PT; for LS Mean Difference vs Placebo in TSB at 48 hrs: difference in TSB percentage change from baseline vs placebo plus phototherapy; for PT Failure N: exchange transfusion, IVIG use, readmission for hyperbilirubinemia or re-started PT; for Time at which TSB crosses at or below the PT threshold, Median: plus phototherapy; for LS Mean Percentage Change in TSB at 48 hrs: single IM injection plus phototherapy, change from baseline, LOCF
Method: (§1) A Phase 2b multicenter, double-blind, randomized, placebo-controlled parallel group safety and efficacy trial of two doses of stannsoporfin administered as a single intramuscular injection in combination with phototherapy in term and near-term infants has been proposed and performed.
(§2) Infants will be randomized to one of three treatment arms: placebo, 3.0 mg/kg, or 4.5 mg/kg of stannsoporfin in a 1:1:1 ratio. Infants aged 0 to 48 hours (at the time the qualifying TSB is drawn) with ABO or Rh incompatibility who are DAT-positive, or age 0 to 72 hours (at the time the qualifying TSB is drawn) with G6PD deficiency, confirmed by a documented blood test, who require the initiation of phototherapy are eligible for the study. In addition, patients aged 0 to 48 hours (at the time the qualifying TSB is drawn) with ABO or Rh incompatibility who are DAT negative (or status unknown), and have an increased reticulocyte count (>6%), and require the initiation of phototherapy are eligible for the study.
Inclusion Criteria: 1) Term and near-term infants ≥35 and ≤43 weeks gestational age (GA), age 0-48 hours (at the time the qualifying TSB is drawn) with ABO or Rh incompatibility (anti C, c, D, E or e) who are DAT-positive, or age 0-72 hours (at the time the qualifying TSB is drawn) with G6PD deficiency as confirmed by a documented blood test; OR 2) Term and near-term infants ≥35 and ≤43 weeks GA, age 0-48 hours (at the time the qualifying TSB is drawn) with ABO or Rh incompatibility (anti C, c, D, E or e) who are DAT-negative (or status unknown) and have an increased reticulocyte count (>6%); parental or guardian written consent; birth weight ≥2500 grams; TSB at or above the age-specific threshold for initiating phototherapy per the AAP guidelines (see FIG. 1 and Tables 1, 2 and 3); and parents agree to observe light precautions for 10 days post treatment
Once the patient's TSB is at or above the age-specific threshold for phototherapy and all inclusion and no exclusion criteria are met (including laboratory criteria), patients will be immediately randomized to receive a single intramuscular dose of either placebo (saline), 3.0 mg/kg of stannsoporfin or 4.5 mg/kg of stannsoporfin.
Criteria for discontinuing phototherapy: The criteria for discontinuing phototherapy will be standardized. If a TSB measurement is obtained during phototherapy treatment that is below the age-specific threshold for phototherapy (FIG. 1), phototherapy should be discontinued. In order to check for rebound hyperbilirubinemia, a TSB level is to be obtained between 6 and 12 hours after phototherapy is discontinued (must be done before discharge). If the patient remains in the hospital and continues on phototherapy past 48 hours further assessments and procedures are to be conducted as listed in the Time and Event Table (Table 8).
Initiation of Phototherapy: Once the TSB result has been received, the administration of study drug and initiation of phototherapy should occur as soon as practical. phototherapy should be started within a window of no more than ±30 minutes from IMP administration.
Phototherapy must be narrow spectrum blue light with a single overhead unit. The height of the phototherapy unit should be adjusted to obtain an irradiance of 30 microwatts/cm2/nm at the level of the patient's abdomen. Irradiance should be measured and adjusted to maintain 30 microwatts/cm2/nm, until phototherapy is discontinued. The recordings are to be documented in the eCRF.
Monitoring during phototherapy: It is essential to protect the patient's eyes with opaque eye patches. These must be checked periodically to ensure complete eye coverage during phototherapy. Use of biliblankets or home phototherapy is not permitted. TSB levels will be done at 6, 12, 18, 24, 30, 36±2 h, and 48 hours±6 h after study drug administration (Table 8). If the patient continues on phototherapy past 48 hours, the TSB will be obtained every 12±6 h. […]

[3] = Phase 2b trial of stannsoporfin with phototherapy: safety (adverse events); type: in vivo, human infants
Method: as §1, §2
Safety outcome measures are: Incidence of adverse events and serious adverse events, changes in vital sign measurements, results of physical exam (PE) including eye and hearing assessment, results of neurologic exam, ECG assessments, clinical laboratory tests including hematology, serum chemistries, liver function and renal function tests. Adverse events and SAEs will be summarized for each treatment group and overall for both stannsoporfin treatment groups with the proportion of patients reporting each event. Actual values and change from baseline in vital signs, physical and neurologic exam and laboratory test parameters will be summarized for each treatment group and overall for both stannsoporfin treatment groups with descriptive statistics at each assessment obtained. Changes in ECG findings, ophthalmologic and audiology assessments will be summarized for each treatment group and overall for both stannsoporfin treatment groups with descriptive statistics at each assessment obtained, including changes from baseline to Day 30 (early term). Efficacy and safety parameters will also be analyzed according to DAT status.
The results from a Phase 2b multicenter, double blind, randomized, placebo controlled parallel group safety and efficacy trial of two doses of stannsoporfin administered as a single intramuscular (IM) injection in combination with phototherapy (PT) in term and near-term infants, all with an ABO/Rh incompatibility were highly statistically significant and positive. Ninety-one neonates (aged 24 hours of age, range 7 to 54 hours), all at medium to high risk of severe hyperbilirubinemia, all with an ABO/Rh incompatibility, birth weights of 2580 to 4930 grams, and gestational age of 35 to 42 weeks, were randomized to one of three treatment arms: placebo (saline), 3.0 mg/kg stannsoporfin, or 4.5 mg/kg of stannsoporfin. All were included in the intent-to-treat-primary efficacy and safety analyses.
TEAEs occurred in 59% of Stannsoporfin treated infants vs 52% among placebo. Serious TEAEs occurred in 15% of Stannsoporfin treated infants vs 20% of placebo. TEAEs related to phototherapy (eg skin rash, erythema) occurred in 16% of Stannsoporfin treated infants vs 10% of placebo.

[4] = Stannsoporfin 3.0 mg/kg (N = 30)
[5] = Stannsoporfin 4.5 mg/kg (N = 31)
[6] = Stannsoporfin Combined (N = 61)
[7] = both high dose (4.5 mg/kg) and low dose (3.0 mg/kg), compared with phototherapy and placebo
[8] = all treatment arms of the trial

**Q.** With `CCC1=C(C)c2cc3[n-]c(cc4[n-]c(cc5nc(cc1n2)C(C)=C5CC)c(C)c4CCC(=O)O)c(CCC(=O)O)c3C.[Cl-].[Cl-].[Sn+4]` [Stannsoporfin, tin-mesoporphyrin IX dichloride] as the compound, how does the “increase in TSB at 48 hours” value [1] read?
**A.** 15%

**Q.** What about the “PT Failure (%)” value [2, 4] of the same compound?
**A.** (10%)

**Q.** What about the “PT Failure Odds Ratio vs Placebo” value [2, 4] of the same compound?
**A.** 0.31

**Q.** What about the “Rebound Hyperbilirubinemia (%)” value [2, 4] of the same compound?
**A.** (9%)

**Q.** What about the “Rebound Hyperbilirubinemia N” value [2, 4] of the same compound?
**A.** 0/30

**Q.** And the “LS Mean Difference vs Placebo in TSB at 48 hrs” value (shortened to “LS Mean Difference vs Placebo”) [2, 4]?
**A.** −31.69

**Q.** And the “PT Failure N” value [2, 4]?
**A.** 3/30

**Q.** And the “Time at which TSB crosses at or below the PT threshold, Median” value (“Time at which TSB crosses” for short) [2, 4]?
**A.** 11.8 h

**Q.** And the “LS Mean Percentage Change in TSB at 48 hrs” value (“LS Mean Percentage Change” below) [2, 4]?
**A.** −9.5%

**Q.** And the “PT Failure (%)” value [2, 5]?
**A.** (3%)

**Q.** What about the “PT Failure Odds Ratio vs Placebo” value [2, 5] of the same compound?
**A.** 0.09

**Q.** What about the “Rebound Hyperbilirubinemia (%)” value [2, 5] of the same compound?
**A.** (3%)

**Q.** And the “Rebound Hyperbilirubinemia N” value [2, 5]?
**A.** 1/31

**Q.** And the “LS Mean Difference vs Placebo” value [2, 5]?
**A.** −27.69

**Q.** And the “PT Failure N” value [2, 5]?
**A.** 1/31

**Q.** And the “Time at which TSB crosses” value [2, 5]?
**A.** 10.6 h

**Q.** What about the “LS Mean Percentage Change” value [2, 5] of the same compound?
**A.** −5.5%

**Q.** And the “PT Failure (%)” value [2, 6]?
**A.** (7%)

**Q.** And the “PT Failure Odds Ratio vs Placebo” value [2, 6]?
**A.** 0.20

**Q.** And the “Rebound Hyperbilirubinemia (%)” value [2, 6]?
**A.** (2%)

**Q.** What about the “Rebound Hyperbilirubinemia N” value [2, 6] of the same compound?
**A.** 1/61

**Q.** What about the “LS Mean Difference vs Placebo” value [2, 6] of the same compound?
**A.** −29.69

**Q.** What about the “PT Failure N” value [2, 6] of the same compound?
**A.** 4/61

**Q.** And the “Time at which TSB crosses” value [2, 6]?
**A.** 11.6 h

**Q.** What about the “LS Mean Percentage Change” value [2, 6] of the same compound?
**A.** −7.4%

**Q.** And the “effect on percentage change in total serum bilirubin (TSB) at 24 hours after drug administration” value [2, 7]?
**A.** highly statistically significant (P<0.0001) positive effect

**Q.** And the “effect on percentage change in total serum bilirubin (TSB) at 48 hours after drug administration” value [2, 7]?
**A.** highly significant (P<0.0001) positive effect

**Q.** What about the “effect on percentage change in total serum bilirubin (TSB) at 48 hours after drug administration” value ([2]; both high dose (4.5 mg/kg) and low dose (3.0 mg/kg), compared with phototherapy and placebo, listed as stannsoporfin) of the same compound?
**A.** statistically significant positive effect

**Q.** And the “Serious TEAEs, proportion of infants” value ([3]; Stannsoporfin treated infants (both doses) plus phototherapy, vs 20% of placebo)?
**A.** 15%

**Q.** And the “treatment-emergent adverse events (TEAEs), proportion of infants” value ([3]; Stannsoporfin treated infants (both doses) plus phototherapy, vs 52% among placebo)?
**A.** 59%

**Q.** What about the “TEAEs related to phototherapy (eg skin rash, erythema), proportion of infants” value ([3]; Stannsoporfin treated infants (both doses), vs 10% of placebo) of the same compound?
**A.** 16%

**Q.** What about the “discontinuation of the study due to an adverse event” value [3, 8] of the same compound?
**A.** no infant discontinued the study due to an adverse event

**Q.** And the infant deaths [3, 8]?
**A.** no infant deaths

**Q.** And the safety signals ([3]; either dose (3.0 or 4.5 mg/kg))?
**A.** no safety signals
